These compounds were tested on Streptococcus pyogenes (ATCC# 97-03 14289) (assay: Anti-microbial screen (growth inhibition, OD 570 nm)). Settings: ATCC97, compounds at 170 μg/ml, Todd Hewitt Broth, read at 4 hrs.
Assay type: cell-based
Procedure: Streptococcus pyogenes (ATCC# 97-03 14289) were grown in Todd Hewitt Broth (THB) (Difco Laboratories #0492-17-6) overnight until they reached an optical density of (OD=0.636@ 570 nm) by reading 0.1 ml in a 96 well microtiter plate in a Molecular Devices Thermomax. This preparation was kept frozen as stocks in 30% v/v glycerol in 1.5 ml aliquots at −70 C° until used. Prior to screening, 1.5 ml aliquots were thawed and diluted into 50 ml THB. 200 μl of this dilution was added to 92 wells of microtiter plate. To three wells THB (200 μl) was added to serve as a blank and a sterility control. Test compounds in DMSO and appropriate concentrations of DMSO were added to Growth/Solvent Controls at 0 time. Plates were read at 0 time at 570 nm in the Molecular Devices plate reader to obtain compounds correction factors for insoluble or colored compounds. Plates were read again at 4 hrs.
Compounds were assayed at a concentration of 170 μg/ml. Percent inhibition for each compound was calculated using the following formulae:
Color correct=(O.D. 0 hr−Blank 0 hr)−(Solvent Control 0 hr−Blank 0 hr)
% Inhibition=100−(O.D. test compound 4 hr−Blank 4 hr−color correct) divided by (O.D. growth/solvent control 4 hr−Blank 4 hr)

For CC(=O)NC1CCN(C(=O)c2ccc3c(c2)nc2n3C(CCCNC(=N)N)C(=O)Nc3ccc(N4CCSCC4)cc3-2)C1 (stereo not shown) [6000#59355], which inhibition at 170 µg/mL is on record?
Its inhibition at 170 µg/mL is 97.2%.

CCOC(=O)N1CCN(C(=O)c2ccc3c(c2)nc2n3C(CCCNC(=N)N)C(=O)Nc3ccc(NCCCSC)cc3-2)CC1 (stereo not shown) [6000#59387] was tested. Which inhibition at 170 µg/mL did it give?
Its inhibition at 170 µg/mL is 97.8%.

How did the inhibition at 170 µg/mL turn out when CCOC(=O)N1CCN(C(=O)c2ccc3c(c2)nc2n3C(CCCNC(=N)N)C(=O)Nc3ccc(Sc4nc(C)cc(C)n4)cc3-2)CC1 (stereo not shown) [6000#59393] was run?
The inhibition at 170 µg/mL was 96.1%.

Which inhibition at 170 µg/mL does the source give for CCOC(=O)N1CCN(C(=O)c2ccc3c(c2)nc2n3C(CCCNC(=N)N)C(=O)Nc3ccc(Sc4ccccn4)cc3-2)CC1 (stereo not shown) [6000#59425] here?
The inhibition at 170 µg/mL was 96.8%.

How did the inhibition at 170 µg/mL turn out when CCOC(=O)N1CCN(C(=O)c2ccc3c(c2)nc2n3C(CCCNC(=N)N)C(=O)Nc3ccc(N4CCSCC4)cc3-2)CC1 (stereo not shown) [6000#59435] was run?
Its inhibition at 170 µg/mL is 96.1%.

How did the inhibition at 170 µg/mL turn out when CCOC(=O)N1CCN(C(=O)c2ccc3c(c2)nc2n3C(CCCNC(=N)N)C(=O)Nc3ccc(N(CC)CC)cc3-2)CC1 (stereo not shown) [6000#59439] was run?
Its inhibition at 170 µg/mL is 96.4%.

For CC(=O)NCCNC(=O)c1ccc2c(c1)nc1n2C(CCCNC(=N)N)C(=O)Nc2ccc(NCc3ccc(F)cc3)cc2-1 (stereo not shown) [6000#59512], which inhibition at 170 µg/mL is on record?
The inhibition at 170 µg/mL was 98.7%.

With CN(C)CCN(C)c1ccc2c(c1)-c1nc3cc(Br)ccc3n1C(CCCNC(=N)N)C(=O)N2 (stereo not shown) [6000#60735] as the compound, how does the inhibition at 170 µg/mL read?
Its inhibition at 170 µg/mL is 99.9%.

How did the inhibition at 170 µg/mL turn out when CC(=O)NCCNc1ccc2c(c1)-c1nc3cc(Br)ccc3n1C(CCCNC(=N)N)C(=O)N2 (stereo not shown) [6000#60738] was run?
The inhibition at 170 µg/mL was 96.5%.

For CC(=O)N1CCN(c2ccc3c(c2)-c2nc4cc(Br)ccc4n2C(CCCNC(=N)N)C(=O)N3)CC1 (stereo not shown) [6000#60754], which inhibition at 170 µg/mL is on record?
The inhibition at 170 µg/mL was 97.3%.

How did the inhibition at 170 µg/mL turn out when CCOCCNc1ccc2c(c1)-c1nc3cc(Br)ccc3n1C(CCCNC(=N)N)C(=O)N2 (stereo not shown) [6000#60778] was run?
Its inhibition at 170 µg/mL is 98.8%.

With N=C(N)NCCCC1C(=O)Nc2ccc(N3CCOCC3)cc2-c2nc3cc(Br)ccc3n21 (stereo not shown) [6000#60794] as the compound, how does the inhibition at 170 µg/mL read?
The inhibition at 170 µg/mL was 97.3%.

Which inhibition at 170 µg/mL does the source give for CCOC(=O)N1CCN(c2ccc3c(c2)-c2nc4ccccc4n2C(CCCNC(=N)N)C(=O)N3)CC1 (stereo not shown) [6000#60826] here?
The inhibition at 170 µg/mL was 95%.

How did the inhibition at 170 µg/mL turn out when Cn1cnnc1Sc1ccc2c(c1)-c1nc3ccccc3n1C(CCCNC(=N)N)C(=O)N2 (stereo not shown) [6000#60857] was run?
Its inhibition at 170 µg/mL is 95.3%.

With N=C(N)NCCCC1C(=O)Nc2ccc(N3CCSCC3)cc2-c2nc3ccccc3n21 (stereo not shown) [6000#60875] as the compound, how does the inhibition at 170 µg/mL read?
The inhibition at 170 µg/mL was 101%.

For CCN(CC)c1ccc2c(c1)-c1nc3ccccc3n1C(CCCNC(=N)N)C(=O)N2 (stereo not shown) [6000#60879], which inhibition at 170 µg/mL is on record?
Its inhibition at 170 µg/mL is 97.4%.

— patent US6515122B1, “Tetracyclic benzimidazole derivatives and combinatorial libraries thereof” (Lion Bioscience AG, priority 1999, dated 2003)
